Experimental data published in US20210177722A1, “Phytic Acid Ester Derivative” (NATIONAL UNIVERSITY CORPORATION KUMAMOTO UNIVERSITY, priority 2018, published 2021).

What was measured:
[1] = tested on: Akt; assay: Western blotting (1), anti-phospho-Akt (Thr308) antibody, Jurkat cell; format: cell-based, human; settings: 8 hours or 24 hours
Procedure: (§1) In this example, the action mechanism for killing cells by Pro-IP6 was studied by Wester blotting using a Jurkat cell and various antibodies. Jurkat cells (1×10^5 cells/well, culture fluid: 500 μL) were seeded in a 24-well plate to be cultured overnight. Thereafter, DMSO (1%, Fujifilm Wako Pure Chemical Corporation), an aqueous solution (1%) of IP6 (final concentration: 10 μM, Sigma Aldrich), or a DMSO solution (1%) of Pro-IP6 (final concentration: 1 μM or 10 μM) was added thereto, followed by culturing for 8 hours or 24 hours. A supernatant was removed, the resultant was washed with 1× PBS (−) once, Laemmli sample buffer was added thereto, and the resultant was boiled at 100° C. for 1 hour to dissolve the cells. […] Detection was performed using ImmunoStar LD (Fujifilm Wako Pure Chemical Corporation).

[2] = tested on: HeLa cell; assay: Quantitative determination of IP6 in cell (LC/MS of IP6 methyl ester); format: cell-based; settings: HeLa cells, 10 μM, 30 minutes
Procedure: In this example, incorporation of Pro-IP6 into a HeLa cell was quantitatively determined.
HeLa cells (5×10^5 cells/well, culture fluid: 1 mL) were seeded in a 3.5 cm dish to be cultured for 24 hours. Thereafter, DMSO (1%, Fujifilm Wako Pure Chemical Corporation), an aqueous solution (1%) of IP6 (final concentration: 10 μM, Sigma Aldrich), or a DMSO solution (1%) of Pro-IP6 (final concentration: 10 μM) synthesized in Example 1 was added thereto, and the resultant was cultured for another 30 minutes. HeLa cells were cultured with neither IP6 nor Pro-IP6 added, followed by adding the same amount of DMSO thereto, and the resultant was used as a negative control.
Thereafter, the resultant was washed with 1× PBS (−) once, and the resultant cells were scraped with a cell scraper, transferred to a 1.5 mL tube, and washed with 1× PBS (−) three times. To the thus obtained precipitate, 350 μl of MeOH (Fujifilm Wako Pure Chemical Corporation) and 1% NP-40 (Nacalai Tesque, Inc.) were added, followed by sonication (10 minutes). After equilibrating a column (Oasis WAX 1cc, Waters) with MeOH (1 mL) and H2O (1 mL), a disrupted cell extract was added thereto. Thereafter, the column was washed with 50% MeOH (1 mL), and eluted with 50% MeOH (200 μL×2) containing 2 mol/L of HCl (Fujifilm Wako Pure Chemical Corporation). The thus obtained eluate was concentrated, and dissolved in MeOH (50 μL), and trimethylsilyldiazomethane (200 μl, Tokyo Chemical Industry Co., Ltd.) was added thereto, followed by stirring at 50° C. for 1 hour under argon atmosphere. The reaction was stopped by adding H2O (100 μL). Through a reaction of trimethylsilyidiazomethane with IP6, IP6 methyl ester is obtained.
The thus obtained sample (IP6 methyl ester) was measured by LC/MS [column: MastroC18 2.1 mm×100 mm, […] (Shimadzu GLC Ltd.), mobile phase: 0.1% formic acid solution (Fujifilm Wako Pure Chemical Corporation), acetonitrile (Fujifilm Wako Pure Chemical Corporation)] [LC:LC-20AD (Shimadzu), MS: amaZon speed (BRUKER)].

[3] = tested on: Caspase-3; assay: Western blotting (1), Caspase-3 antibody, Jurkat cell; format: cell-based, human; settings: 10 μM
Procedure: as §1

[4] = tested on: K562 cell (chronic myelogenous leukemia cell); assay: MTT assay, K562 cell; format: cell-based; settings: 1 μM or 10 μM, 8 hours or 24 hours
Procedure: (§2) In this example, the cytotoxic effect of Pro-IP6 on four types of blood cancer cell lines and a cell derived from a healthy person was examined by MTT assay. […] It is possible to check viability of cultured cells by MTT assay. Cancer cell lines (1.74×10^4 cells/well, culture fluid: 200 μL) • MT-2 cell (HTLV transformed human T cell leukemia cell) • […] cell (human T-lymphoblastoid cell) • Jurkat cell (human T-lymphocyte cell) • K562 cell (chronic myelogenous leukemia cell) Each of the above-described types of cells was seeded in a 96-well plate, and was cultured for 8 hours for each of the various cancer cell lines and for 16 hours for PMBC. Thereafter, DMSO (1%, Fujifilm Wako Pure Chemical Corporation), an aqueous solution (1%) of IP6 (final concentration: 1 μM or 10 μM, Sigma Aldrich), or a DMSO solution (1%) of Pro-IP6 (final concentration: 1 μM or 10 μM) was added thereto, followed by culturing for 8 hours or 24 hours. An MTT reagent (Dojindo Laboratories, 1.1 mg/mL) was added in an amount of 50 μL per well, and the resultant was cultured for another 4 hours. The thus precipitated crystal was collected, a supernatant was removed, and 100 μL of DMSO was added thereto to completely dissolve. The resultant solution was measured for an absorbance (550 nm).

[5] = tested on: PARP-1; assay: Western blotting (1), anti-PARP-1 antibody, Jurkat cell; format: cell-based, human; settings: 10 μM
Procedure: as §1

[6] = tested on: M8166 cell (human T-lymphoblastoid cell); assay: MTT assay, M8166 cell; format: cell-based
Procedure: as §2

[7] = tested on: MT-2 cell (HTLV transformed human T cell leukemia cell); assay: MTT assay, MT-2 cell; format: cell-based; settings: 1 μM or 10 μM, 8 hours or 24 hours
Procedure: as §2

[8] = tested on: Jurkat cell (human T-lymphocyte cell); assay: MTT assay, Jurkat cell; format: cell-based
Procedure: as §2

[9] = tested on: AMPK; assay: Western blotting (2), anti-pAMPK antibody, Jurkat cell; format: cell-based, human; settings: 1 μM or 10 μM, 8 hours or 24 hours
Procedure: In this example, in the same manner as in Example 4, the action mechanism for killing cells by Pro-IP6 was checked by Wester blotting using a Jurkat cell and various antibodies. Jurkat cells (1×10^5 cells/well, culture fluid: 500 μL) were seeded in a 24-well plate to be cultured overnight. Thereafter, DMSO (1%, Fujifilm Wako Pure Chemical Corporation), an aqueous solution (1%) of IP6 (final concentration 10 μM, Sigma Aldrich), or a DMSO solution (1%) of Pro-IP6 (final concentration: 1 μM or 10 μM) was added thereto, followed by culturing for 8 hours or 24 hours. A supernatant was removed, the resultant was washed with 1× PBS (−) once, Laemmli sample buffer was added thereto, and the resultant was boiled at 100° C. for […] to dissolve the cells. The resultant was subjected to electrophoresis and then transferred onto a membrane (Millipore). […] Detection was performed using ImmunoStar LD (Fujfilm Wako Pure Chemical Corporation).

## CCCC(=O)OCOP(=O)(OCOC(=O)CCC)O[C@H]1[C@H](OP(=O)(OCOC(=O)CCC)OCOC(=O)CCC)[C@@H](OP(=O)(OCOC(=O)CCC)OCOC(=O)CCC)[C@H](OP(=O)(OCOC(=O)CCC)OCOC(=O)CCC)[C@@H](OP(=O)(OCOC(=O)CCC)OCOC(=O)CCC)[C@H]1OP(=O)(OCOC(=O)CCC)OCOC(=O)CCC [Pro-IP6, myo-inositol hexaphosphate dodecakis(butyryloxymethyl) ester]
[1]; 1 μM
  phosphorylation of Akt: inhibits phosphorylation of Akt
[1]; 10 μM
  phosphorylation of Akt: inhibits phosphorylation of Akt
[2]
  incorporation into HeLa cell (IP6 methyl ester by LC/MS vs negative control): well incorporated
[2]; LC/MS
  amount of IP6 methyl ester observed in cell relative to that of IP6: not less than 200 times
[3]
  cleavage of Caspase-3 (induction of apoptosis): cleavage of PARP-1 and Caspase-3 was observed
[4]
  lowering of relative cell viability: ≥ 25%
[5]
  cleavage of PARP-1 (induction of apoptosis): cleavage of PARP-1 and Caspase-3 was observed
[6]
  cytotoxic effect at 10 μM: most of the cells were killed
[6]; M8166 cell, 1 μM or 10 μM, 8 hours or 24 hours
  lowering of relative cell viability: ≥ 25%
[7]
  lowering of relative cell viability: ≥ 25%
[8]
  cytotoxic effect at 10 μM: most of the cells were killed
[8]; Jurkat cell, 1 μM or 10 μM, 8 hours or 24 hours
  lowering of relative cell viability: ≥ 25%
[9]
  activation of AMPK (pAMPK): activates AMPK
